Laboratory results as given in PubChem BioAssay (NCI).
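Cells were grown in 96-well plates and exposed to each compound for 48 hours at five concentrations; endpoints were interpolated linearly between bracketing concentrations, or set to the highest concentration if not reached. Here, GI50 denotes the concentration required for 50% inhibition of growth. At the TGI there is no net growth.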

Key:
Test in all cases: DTP human tumour cell line panel, 48 h
[1] = test system: ACHN renal
[2] = test system: NCI-H522 lung
[3] = test system: SF-295 CNS
[4] = test system: UO-31 renal
[5] = test system: KM12 colon
[6] = test system: OVCAR-8 ovarian
[7] = test system: SNB-19 CNS
[8] = test system: SK-OV-3 ovarian
[9] = test system: SR leukemia
[10] = test system: SK-MEL-2 melanoma
[11] = test system: U251 CNS
[12] = test system: SNB-75 CNS
[13] = test system: OVCAR-3 ovarian
[14] = test system: RXF 393 renal
[15] = test system: CCRF-CEM leukemia
[16] = test system: HOP-92 NSCLC
[17] = test system: HL-60(TB) leukemia
[18] = test system: NCI-H460 lung
[19] = test system: SK-MEL-5 melanoma
[20] = test system: MALME-3M melanoma
[21] = test system: OVCAR-4 ovarian
[22] = test system: UACC-62 melanoma
[23] = test system: SF-268 CNS
[24] = test system: CAKI-1 renal
[25] = test system: M14 melanoma
[26] = test system: LOX IMVI melanoma
[27] = test system: NCI/ADR-RES ovarian
[28] = test system: T-47D breast
[29] = test system: SW-620 colon

## O=C(c1ccc2ccccc2c1)c1c(C(F)(F)F)n([O-])c2ccc(C(F)(F)F)cc2[n+]1=O
[1]
  GI50: 0.566 µM
  TGI: 1.71 µM
[2]
  GI50: 0.505 µM
  TGI: 1.09 µM
[3]
  GI50: 1.29 µM
  TGI: 2.74 µM
[4]
  GI50: 0.434 µM
  TGI: 0.874 µM
[5]
  GI50: 0.961 µM
  TGI: 2.39 µM
[6]
  GI50: 0.727 µM
  TGI: 2.45 µM
[7]
  GI50: 1.76 µM
  TGI: 3.2 µM
[8]
  GI50: 1.79 µM
  TGI: 3.2 µM
[9]
  GI50: 0.174 µM
  TGI: 0.478 µM
[10]
  GI50: 1.96 µM
  TGI: 3.77 µM
[11]
  GI50: 0.302 µM
  TGI: 0.742 µM
[12]
  GI50: 0.64 µM
  TGI: 1.48 µM
[13]
  GI50: 0.884 µM
  TGI: 2.26 µM
[14]
  GI50: 0.974 µM
  TGI: 2.54 µM
[15]
  GI50: 0.181 µM
  TGI: 0.547 µM
[16]
  GI50: 0.899 µM
  TGI: 2.28 µM
[17]
  GI50: 0.639 µM
  TGI: 2.2 µM
[18]
  GI50: 1.8 µM
  TGI: 3.69 µM
[19]
  GI50: 0.927 µM
  TGI: 2.37 µM
[20]
  GI50: 1.2 µM
  TGI: 2.71 µM
[21]
  GI50: 0.249 µM
  TGI: 0.607 µM
[22]
  GI50: 1.72 µM
  TGI: 3.21 µM
[23]
  GI50: 0.783 µM
  TGI: 2.37 µM
[24]
  GI50: 0.28 µM
  TGI: 0.73 µM
[25]
  GI50: 1.54 µM
  TGI: 2.95 µM
[26]
  GI50: 0.191 µM
  TGI: 0.363 µM
[27]
  GI50: 1.7 µM
  TGI: 4.75 µM
[28]
  GI50: 0.755 µM
  TGI: 2.31 µM
[29]
  GI50: 0.514 µM
  TGI: 1.11 µM
